Results reported in patent US20260374773A1, “MULTI-CYCLIC IRAK AND FLT3 INHIBITING COMPOUNDS AND USES THEREOF” (CHILDREN'S HOSPITAL MEDICAL CENTER, priority 2022, published 2026).

Each compound was assayed against T1, FLT3 ITD, F691L (Homo sapiens, UniProt P36888, F691L/ITD) (assay: DiscoverX KINOMEscan active site-directed competition binding, FLT3 ITD, F691L). Conditions: Table 13; no ATP.
T1 construct: F691L gatekeeper
T1 sequence (P36888 27-993 F691L): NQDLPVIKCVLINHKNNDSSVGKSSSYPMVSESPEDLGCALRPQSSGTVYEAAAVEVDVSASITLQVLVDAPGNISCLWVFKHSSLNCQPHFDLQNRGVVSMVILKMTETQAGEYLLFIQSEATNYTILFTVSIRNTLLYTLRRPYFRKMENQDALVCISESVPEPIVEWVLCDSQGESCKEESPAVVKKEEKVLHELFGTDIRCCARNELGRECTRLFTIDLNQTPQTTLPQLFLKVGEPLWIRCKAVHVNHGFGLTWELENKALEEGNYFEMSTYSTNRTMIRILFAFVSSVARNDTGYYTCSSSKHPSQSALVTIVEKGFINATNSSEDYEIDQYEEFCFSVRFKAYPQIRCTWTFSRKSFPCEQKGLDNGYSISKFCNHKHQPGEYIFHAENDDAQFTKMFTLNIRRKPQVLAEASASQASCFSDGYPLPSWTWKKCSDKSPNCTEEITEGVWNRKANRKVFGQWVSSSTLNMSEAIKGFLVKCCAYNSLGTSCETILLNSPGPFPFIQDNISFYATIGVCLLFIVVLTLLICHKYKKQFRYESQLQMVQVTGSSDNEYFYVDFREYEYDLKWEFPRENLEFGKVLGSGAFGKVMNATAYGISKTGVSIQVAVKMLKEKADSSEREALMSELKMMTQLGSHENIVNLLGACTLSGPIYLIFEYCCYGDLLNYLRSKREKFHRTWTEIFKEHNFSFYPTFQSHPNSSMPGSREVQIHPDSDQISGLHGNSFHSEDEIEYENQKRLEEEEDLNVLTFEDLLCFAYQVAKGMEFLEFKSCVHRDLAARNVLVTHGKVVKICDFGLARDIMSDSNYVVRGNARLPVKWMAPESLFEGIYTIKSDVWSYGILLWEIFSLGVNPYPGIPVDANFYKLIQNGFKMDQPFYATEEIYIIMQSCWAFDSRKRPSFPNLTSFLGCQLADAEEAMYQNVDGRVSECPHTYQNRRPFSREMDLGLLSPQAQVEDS
From the text: (§1) Kinase binding data were obtained for various exemplary compounds prepared according to Examples 1-8 using the DiscoverX KINOMEscan® active site-directed competition binding site-directed assay protocol described below. […] As a result, the data report thermodynamic interaction affinities (Kd values), rather than IC50 values that are dependent on ATP concentrations. The assay uses a DNA-tagged version of the protein kinase, and an immobilized ligand bound to a solid support. Compounds that directly or indirectly prevent kinase binding to the immobilized ligand reduce the amount of kinase captured on the solid support, which is detected using an ultra-sensitive qPCR method. Affinity constants reported from the assay have been reported to be independent of the immobilized ligand used that is coupled to the solid support (See supplemental information in Fabian, M. A. et. al., (2005) Nat. Biotechnol. 23, 329-336; Wodicka, L. M. et. al., (2010) Chem. Biol. 17, 1241-1249.)
Kinase-tagged T7 phage strains were prepared in an E. coli host derived from the BL21 strain. E. coli were grown to log-phase and infected with T7 phage and incubated with shaking at 32 °C until lysis. The lysates were centrifuged and filtered to remove cell debris. The remaining kinases were produced in HEK-293 cells and subsequently tagged with DNA for qPCR detection. Streptavidin-coated magnetic beads were treated with biotinylated small molecule ligands for 30 minutes at room temperature to generate affinity resins for kinase assays. The liganded beads were blocked with excess biotin and washed with blocking buffer (SeaBlock (Pierce), 1% BSA, 0.05% Tween 20, 1 mM DTT) to remove unbound ligand and to reduce non-specific binding. […] Test compounds were prepared as 111x stocks in 100% DMSO. Kds were determined using an 11-point 3-fold compound dilution series with three DMSO control points. All compounds for Kd measurements are distributed by acoustic transfer (non-contact dispensing) in 100% DMSO. The compounds were then diluted directly into the assays such that the final concentration of DMSO was 0.9%. All reactions were performed in polypropylene 384-well plates. Each was a final volume of 0.02 mL. The assay plates were incubated at room temperature with shaking for 1 hour and the affinity beads were washed with wash buffer (1×PBS, 0.05% Tween 20). The beads were then re-suspended in elution buffer (1×PBS, 0.05% Tween 20, 0.5 μM nonbiotinylated affinity ligand) and incubated at room temperature with shaking for 30 minutes. The kinase concentration in the eluates was measured by qPCR. Binding constants (Kds) were calculated with a standard dose-response curve using the Hill equation. The Hill Slope was set to −1. Curves were fitted using a non-linear least square fit with the Levenberg-Marquardt algorithm.
as §1, with “9-12” for “1-8”
Kinase-tagged T7 phage strains were prepared in an E. coli host derived from the BL21 strain. […]

Kd, < 0.17 nM:
COc1cn2ncc(-c3nc(N[C@H]4CNCC[C@@H]4F)c(C#N)cc3F)c2nc1C(C)(C)O [Compound 10, 5-fluoro-2-(((3S,4S)-4-fluoropiperidin-3-yl)amino)-6-(5-(2-hydroxypropan-2-yl)-6-methoxypyrazolo[1,5-a]pyrimidin-3-yl)nicotinonitrile]
COc1cn2ncc(-c3nc(N[C@H]4CNCC[C@@H]4F)c(C#N)cc3F)c2nc1C1CC1 [Compound 7, 6-(5-cyclopropyl-6-methoxypyrazolo[1,5-a]pyrimidin-3-yl)-5-fluoro-2-(((3S,4S)-4-fluoropiperidin-3-yl)amino)nicotinonitrile]
COc1cn2ncc(-c3nc(N[C@H]4CNCC[C@@H]4F)c(F)cc3F)c2nc1C(C)(C)O [Compound 13, 2-(3-(3,5-difluoro-6-(((3S,4S)-4-fluoropiperidin-3-yl)amino)pyridin-2-yl)-6-methoxypyrazolo[1,5-a]pyrimidin-5-yl)propan-2-ol]

Same assay, conditions: Table 19; no ATP

Kd, < 0.17 nM:
COc1cn2ncc(-c3nc(N[C@@H]4CCCNC4)ncc3F)c2nc1C1CC1 [Compound 14a, (R)-4-(5-cyclopropyl-6-methoxypyrazolo[1,5-a]pyrimidin-3-yl)-5-fluoro-N-(piperidin-3-yl)pyrimidin-2-amine]
COc1cn2ncc(-c3nc(N[C@H]4CNCC[C@@H]4F)ncc3F)c2nc1C(C)(C)O [Compound 6a, 2-(3-(5-fluoro-2-(((3S,4S)-4-fluoropiperidin-3-yl)amino)pyrimidin-4-yl)-6-methoxypyrazolo[1,5-a]pyrimidin-5-yl)propan-2-ol]
COc1cn2ncc(-c3nc(N[C@H]4CNCC[C@@H]4F)ncc3F)c2nc1C1CC1 [Compound 15a, 4-(5-cyclopropyl-6-methoxypyrazolo[1,5-a]pyrimidin-3-yl)-5-fluoro-N-((3S,4S)-4-fluoropiperidin-3-yl)pyrimidin-2-amine]
COc1cn2ncc(-c3cncc(N[C@H]4CNCC[C@@H]4F)n3)c2nc1C1CC1 [Compound 12a, 6-(5-cyclopropyl-6-methoxypyrazolo[1,5-a]pyrimidin-3-yl)-N-((3S,4S)-4-fluoropiperidin-3-yl)pyrazin-2-amine]
COc1cn2ncc(-c3ccnc(N[C@H]4CNCC[C@@H]4F)n3)c2nc1C1CC1 [Compound 7a, 4-(5-cyclopropyl-6-methoxypyrazolo[1,5-a]pyrimidin-3-yl)-N-((3S,4S)-4-fluoropiperidin-3-yl)pyrimidin-2-amine]
